In PMC6366423 (Journal of Enzyme Inhibition and Medicinal Chemistry, 2019):
Where “and” joins values, the source holds several entries; their conditions need not be identical. Equal entries are not always repeated. Where two headings read alike, the source gives them in different places.

Key:
hMAOA = target: T1, hMAOA (Homo sapiens, UniProt P21397); test: MAO activity assay (kynuramine, HPLC-MS); type: biochemical; settings: for inhibition at 10 µM: read-out: hMAOA enzymatic inhibition (%)
T1 sequence (P21397 1-527): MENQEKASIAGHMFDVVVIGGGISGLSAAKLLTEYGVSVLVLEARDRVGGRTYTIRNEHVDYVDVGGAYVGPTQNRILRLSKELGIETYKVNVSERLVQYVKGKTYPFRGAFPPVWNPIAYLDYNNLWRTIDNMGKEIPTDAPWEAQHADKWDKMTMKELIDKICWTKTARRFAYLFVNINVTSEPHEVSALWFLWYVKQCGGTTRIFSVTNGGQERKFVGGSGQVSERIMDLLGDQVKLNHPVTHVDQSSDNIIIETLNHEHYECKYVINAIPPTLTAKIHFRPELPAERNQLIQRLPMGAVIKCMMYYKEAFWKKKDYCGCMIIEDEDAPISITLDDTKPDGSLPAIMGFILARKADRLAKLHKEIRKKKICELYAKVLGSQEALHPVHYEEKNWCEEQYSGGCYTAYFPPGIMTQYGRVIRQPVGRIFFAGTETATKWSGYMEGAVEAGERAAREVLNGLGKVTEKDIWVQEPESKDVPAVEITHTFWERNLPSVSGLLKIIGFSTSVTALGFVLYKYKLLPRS

[1] = Oxygen radical absorbance capacity assay (ORAC-FL); settings: Trolox equivalents (TE), mean (n = 3) ± SD
hBuChE = target: T2, hBuChE (Homo sapiens, UniProt P06276); test: biochemical; type: biochemical; settings: for IC50: mean ± SEM; for inhibition at 10 µM: read-out: hBuChE enzymatic inhibition (%)
T2 construct: hBuChE from human serum (Sigma Aldrich, Madrid, Spain); purchased Sigma Aldrich; host or cells: human serum

hMAOB = target: T3, hMAOB (Homo sapiens, UniProt P27338); test: MAO activity assay (kynuramine, HPLC-MS); type: biochemical; settings: for inhibition at 10 µM: read-out: hMAOB enzymatic inhibition (%); for IC50: IC50 hMAOB, mean ± SEM
T3 sequence (P27338 1-520): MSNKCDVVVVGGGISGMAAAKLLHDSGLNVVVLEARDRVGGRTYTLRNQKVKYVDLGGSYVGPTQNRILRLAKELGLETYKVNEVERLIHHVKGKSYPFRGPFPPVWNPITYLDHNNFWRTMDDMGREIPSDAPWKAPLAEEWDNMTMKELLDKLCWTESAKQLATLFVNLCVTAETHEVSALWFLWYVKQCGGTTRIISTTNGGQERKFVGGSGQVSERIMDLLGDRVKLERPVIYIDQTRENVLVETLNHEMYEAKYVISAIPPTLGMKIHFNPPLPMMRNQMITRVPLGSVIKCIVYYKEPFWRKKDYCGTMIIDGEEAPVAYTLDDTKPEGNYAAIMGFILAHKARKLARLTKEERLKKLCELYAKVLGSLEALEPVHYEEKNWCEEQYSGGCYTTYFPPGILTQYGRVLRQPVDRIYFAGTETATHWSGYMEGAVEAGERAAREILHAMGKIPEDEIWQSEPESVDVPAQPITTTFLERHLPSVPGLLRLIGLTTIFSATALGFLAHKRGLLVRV

eqBuChE = target: T4, eqBuChE (Equus caballus, UniProt P81908); test: biochemical; type: biochemical, equine; settings: for IC50: mean ± SEM
T4 construct: eqBuChE (purified from equine serum); from tissue; host or cells: equine serum
Procedure: (§1) Inhibition of EeAChE and eqBuChE of hybrids 14a–p was carried out with EeAChE (type VI-S, purified from Electrophorus electricus) and eqBuChE (purified from equine serum) using Ellman’s protocol. Briefly, the reaction was performed in a final volume of 3 ml of a phosphate-buffered solution (0.1 M) at pH = 8.0 containing 5,5’-dithiobis-2-nitrobenzoic acid (DTNB) (2.625 μL, 0.35 mM), EeAChE (29 μl, 0.035 U/mL) or eqBuChE (60 μl, 0.05 U/mL), Bovine Albumin Serum phosphate-buffered solution (40 μL 1% w/v), and tested compound (3 µL). After 10 min of incubation, the substrate, AcTCh) iodide or butyrylthiocholine (BuTCh) iodide, was added, and the reaction was incubated for an additional 15 min.

hAChE = target: T5, hAChE (Homo sapiens, UniProt P22303); test: biochemical; type: biochemical; settings: for IC50: mean ± SEM; for inhibition at 10 µM: read-out: hAChE enzymatic inhibition (%)
T5 construct: purchased Sigma Aldrich; host or cells: HEK 293

EeAChE = target: T6, EeAChE (Electrophorus electricus, UniProt O42275); test: biochemical; settings: for inhibition at 10 µM: read-out: EeAChE enzymatic inhibition (%)
T6 construct: EeAChE (type VI-S, purified from Electrophorus electricus); tissue type VI-S
Procedure: as §1

[2] = ORAC-FL, positive reference molecules; cited from earlier work

T2 sequence (P06276 29-602): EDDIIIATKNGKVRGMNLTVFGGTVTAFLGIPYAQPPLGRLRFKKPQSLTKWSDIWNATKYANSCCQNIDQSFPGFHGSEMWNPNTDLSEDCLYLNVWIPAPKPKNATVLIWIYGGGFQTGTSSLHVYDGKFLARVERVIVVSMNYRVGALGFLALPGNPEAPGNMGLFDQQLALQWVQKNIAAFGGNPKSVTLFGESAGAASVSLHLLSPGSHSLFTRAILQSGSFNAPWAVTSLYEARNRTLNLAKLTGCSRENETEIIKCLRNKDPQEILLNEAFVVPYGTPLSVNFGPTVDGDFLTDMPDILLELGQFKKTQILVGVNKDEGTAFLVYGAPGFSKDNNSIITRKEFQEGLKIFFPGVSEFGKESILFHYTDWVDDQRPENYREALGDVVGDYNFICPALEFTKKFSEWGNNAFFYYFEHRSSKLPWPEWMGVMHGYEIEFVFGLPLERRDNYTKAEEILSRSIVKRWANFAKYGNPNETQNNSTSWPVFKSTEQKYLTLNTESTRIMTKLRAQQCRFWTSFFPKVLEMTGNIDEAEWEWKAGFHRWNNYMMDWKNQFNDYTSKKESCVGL
T5 sequence (P22303 32-614): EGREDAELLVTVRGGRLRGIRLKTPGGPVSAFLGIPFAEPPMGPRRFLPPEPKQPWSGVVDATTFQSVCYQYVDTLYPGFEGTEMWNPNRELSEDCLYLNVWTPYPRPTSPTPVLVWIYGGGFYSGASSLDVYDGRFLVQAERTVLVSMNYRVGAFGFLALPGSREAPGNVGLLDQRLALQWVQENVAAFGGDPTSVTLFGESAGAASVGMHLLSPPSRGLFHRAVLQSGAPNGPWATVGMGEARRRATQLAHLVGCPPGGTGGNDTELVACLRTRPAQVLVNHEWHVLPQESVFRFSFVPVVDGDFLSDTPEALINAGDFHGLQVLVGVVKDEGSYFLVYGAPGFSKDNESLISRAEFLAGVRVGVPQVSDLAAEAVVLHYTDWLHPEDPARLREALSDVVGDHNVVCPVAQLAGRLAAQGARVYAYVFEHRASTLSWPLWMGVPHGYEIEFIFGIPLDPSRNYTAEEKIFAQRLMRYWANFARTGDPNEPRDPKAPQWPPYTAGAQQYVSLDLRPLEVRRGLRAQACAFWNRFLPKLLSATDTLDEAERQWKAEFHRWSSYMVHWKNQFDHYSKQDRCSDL
T6 sequence (O42275 24-633): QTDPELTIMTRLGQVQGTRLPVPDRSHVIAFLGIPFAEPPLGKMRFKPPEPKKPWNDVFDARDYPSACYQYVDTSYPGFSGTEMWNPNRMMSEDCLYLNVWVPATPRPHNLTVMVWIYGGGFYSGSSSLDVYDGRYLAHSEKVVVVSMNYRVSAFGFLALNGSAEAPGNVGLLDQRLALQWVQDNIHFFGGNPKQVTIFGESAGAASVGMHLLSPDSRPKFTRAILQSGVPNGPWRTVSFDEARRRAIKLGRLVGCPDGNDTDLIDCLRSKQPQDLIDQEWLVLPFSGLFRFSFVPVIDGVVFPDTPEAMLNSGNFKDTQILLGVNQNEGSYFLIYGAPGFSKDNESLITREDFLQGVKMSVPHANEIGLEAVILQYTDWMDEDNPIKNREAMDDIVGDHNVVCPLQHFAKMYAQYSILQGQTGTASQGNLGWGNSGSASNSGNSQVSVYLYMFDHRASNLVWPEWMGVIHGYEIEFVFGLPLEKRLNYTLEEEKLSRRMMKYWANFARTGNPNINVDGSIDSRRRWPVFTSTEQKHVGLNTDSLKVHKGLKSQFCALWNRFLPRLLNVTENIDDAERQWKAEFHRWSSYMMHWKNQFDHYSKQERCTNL
T4 sequence (P81908 whole entry): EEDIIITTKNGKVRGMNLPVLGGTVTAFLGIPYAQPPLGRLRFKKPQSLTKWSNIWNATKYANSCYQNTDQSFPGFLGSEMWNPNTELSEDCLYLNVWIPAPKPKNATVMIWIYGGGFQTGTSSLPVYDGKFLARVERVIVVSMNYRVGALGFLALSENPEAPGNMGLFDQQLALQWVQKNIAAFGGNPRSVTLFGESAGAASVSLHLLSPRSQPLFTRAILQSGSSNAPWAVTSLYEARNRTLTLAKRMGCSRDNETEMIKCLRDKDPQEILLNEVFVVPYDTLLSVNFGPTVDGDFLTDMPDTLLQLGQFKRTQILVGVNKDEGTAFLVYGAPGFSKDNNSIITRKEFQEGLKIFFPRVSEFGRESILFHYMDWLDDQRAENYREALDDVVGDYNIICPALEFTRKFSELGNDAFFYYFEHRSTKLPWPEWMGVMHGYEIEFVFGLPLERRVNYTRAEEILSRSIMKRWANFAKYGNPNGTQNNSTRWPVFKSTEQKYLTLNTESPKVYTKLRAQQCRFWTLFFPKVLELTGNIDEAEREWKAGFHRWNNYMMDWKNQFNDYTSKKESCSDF

Structure (SMILES) | inhibition at 10 µM (hMAOA) [%] | ORAC (Eq Trolox) [1] [Eq Trolox] | IC50 (hBuChE) [µM] | inhibition at 10 µM (hMAOB) [%] | IC50 (eqBuChE) [µM] | IC50 (hAChE) [µM] | IC50 (EeAChE; mean ± SEM) [nM] | inhibition at 10 µM (hBuChE) [%] | inhibition at 10 µM (hAChE; at 10 μM) [%] | other results
CCCOc1ccc2[nH]cc(CCNC(=O)CN(CCC3CCN(Cc4ccccc4)CC3)C(=O)c3cc(=O)c4ccccc4o3)c2c1 [14h] | < 40 | 6.07 ± 0.02 | 0.0639 ± 0.00255 | < 40 | 0.00676 ± 0.00049 | 2.04 ± 0.66 | 850 ± 20 |  |  | eqBuChE potency, fold more potent than Donepezil (eqBuChE): 133 fold
COc1ccc2[nH]cc(CCNC(=O)CN(CC3CCN(Cc4ccccc4)CC3)C(=O)c3cc(=O)c4ccccc4o3)c2c1 [14b] | < 40 | 6.24 ± 0.05 |  | < 40 | 0.636 ± 0.0116 |  |  | < 50 | < 50 | inhibition at 10 µM (EeAChE): < 50%
O=C(CN(CCC1CCN(Cc2ccccc2)CC1)C(=O)c1cc(=O)c2ccccc2o1)NCCc1c[nH]c2ccccc12 [14e] | < 40 | 6.52 ± 0.37 | 0.0333 ± 0.00055 | < 40 | 0.0296 ± 0.00238 | 2.62 ± 0.53 | 1430 ± 50 |  |  | 
CCCOc1ccc2[nH]cc(CCNC(=O)CN(CCCC3CCN(Cc4ccccc4)CC3)C(=O)c3cc(=O)c4ccccc4o3)c2c1 [14l] | < 40 | 2.44 ± 0.16 |  | < 40 | 0.00903 ± 0.00018 |  | 380 ± 10 | < 50 | < 50 | 
O=C(CN(CCCC1CCN(Cc2ccccc2)CC1)C(=O)c1cc(=O)c2ccccc2o1)NCCc1c[nH]c2ccccc12 [14i] | < 40 | 6.92 |  | < 40 | 0.0501 ± 0.00519 |  | 260 ± 10 | < 50 | < 50 | ORAC (Eq Trolox) ([1]; listed as [14]i): 6.92 ± 0.32 Eq Trolox
CC(C)Oc1ccc2[nH]cc(CCNC(=O)CN(CC3CCN(Cc4ccccc4)CC3)C(=O)c3cc(=O)c4ccccc4o3)c2c1 [14c] | < 40 | 6.11 ± 0.07 |  | < 40 | 0.246 ± 0.00991 |  |  | < 50 | < 50 | inhibition at 10 µM (EeAChE): < 50%
CCCOc1ccc2[nH]cc(CCNC(=O)CN(CCCCC3CCN(Cc4ccccc4)CC3)C(=O)c3cc(=O)c4ccccc4o3)c2c1 [14p] |  | 2.67 ± 0.15 | 0.0804 ± 0.0124 | < 40 | 0.0613 ± 0.00548 | 2.1 ± 0.51 | 80 |  |  | IC50 (hMAOA): 1.39 ± 0.11 µM
CCCOc1ccc2[nH]cc(CCNC(=O)CN(CC3CCN(Cc4ccccc4)CC3)C(=O)c3cc(=O)c4ccccc4o3)c2c1 [14d] | < 40 | 6.76 ± 0.09 |  |  | 0.0469 ± 0.00341 |  |  | < 50 | < 50 | inhibition at 10 µM (EeAChE): < 50%
CC(C)Oc1ccc2[nH]cc(CCNC(=O)CN(CCC3CCN(Cc4ccccc4)CC3)C(=O)c3cc(=O)c4ccccc4o3)c2c1 [14g] | < 40 | 5.05 ± 0.15 | 0.025 ± 0.0002 | < 40 | 0.00629 ± 0.00073 | 2 ± 0.07 | 1050 ± 60 |  |  | eqBuChE potency, fold more potent than Donepezil (eqBuChE): 133 fold
COc1cc(/C=C/C(=O)O)ccc1O [Ferulic acid] |  |  |  |  |  |  |  |  |  | ORAC (Eq Trolox) [2]: 3.74 Eq Trolox and 3.74 ± 0.22 Eq Trolox
COc1ccc2[nH]cc(CCNC(=O)CN(CCC3CCN(Cc4ccccc4)CC3)C(=O)c3cc(=O)c4ccccc4o3)c2c1 [14f] | < 40 | 6.13 ± 0.09 | 0.2718 ± 0.00175 |  | 0.026 ± 0.00237 | 0.36 ± 0.16 |  |  |  | IC50 (hMAOB): 80.6 ± 13.9 µM; hAChE, fold less active than Donepezil (hAChE): 15 fold
O=C(CN(CCCCC1CCN(Cc2ccccc2)CC1)C(=O)c1cc(=O)c2ccccc2o1)NCCc1c[nH]c2ccccc12 [14m] | < 40 | 2.97 ± 0.16 |  | < 40 | 0.355 ± 0.00841 |  | 60 | < 50 | < 50 | IC50 (EeAChE; values given in nM): 58.2 nM
CC(C)Oc1ccc2[nH]cc(CCNC(=O)CN(CCCCC3CCN(Cc4ccccc4)CC3)C(=O)c3cc(=O)c4ccccc4o3)c2c1 [14o] | < 40 | 2.63 ± 0.12 |  | < 40 | 0.0466 ± 0.00276 |  | 90 | < 50 | < 50 | IC50 (EeAChE; values given in nM): 88.5 nM
CC(C)Oc1ccc2[nH]cc(CCNC(=O)CN(CCCC3CCN(Cc4ccccc4)CC3)C(=O)c3cc(=O)c4ccccc4o3)c2c1 [14k] |  | 2.27 | 0.0349 ± 0.00085 |  | 0.01821 ± 0.00018 |  | 360 ± 10 |  |  | IC50 (hMAOA): 2.99 ± 0.16 µM; ORAC (Eq Trolox) ([1]; listed as [14]k): 2.27 ± 0.37 Eq Trolox; IC50 (hMAOB): 15.2 µM; hAChE enzymatic inhibition (%) (hAChE; at 10 μM): – ^b
COc1ccc2[nH]cc(CCNC(=O)CN(CCCCC3CCN(Cc4ccccc4)CC3)C(=O)c3cc(=O)c4ccccc4o3)c2c1 [14n, N-(4–(1-benzylpiperidin-4-yl)butyl)-N-(2-((2–(5-methoxy-1H-indol-3-yl)ethyl)amino)-2-oxoethyl)-4-oxo-4H-chromene-2-carboxamide] |  | 3.04 | 0.0119 ± 5e-05 |  | 0.0434 ± 0.00137 | 1.73 ± 0.34 | 480 ± 10 |  |  | IC50 (hMAOA): 2.78 ± 0.12 µM; ORAC (Eq Trolox) ([1]; listed as [14]n): 3.04 ± 0.36 Eq Trolox; hBuChE, fold less active than Tacrine (hBuChE): 2 fold; IC50 (hMAOB): 21.3 µM
O=C(CN(CC1CCN(Cc2ccccc2)CC1)C(=O)c1cc(=O)c2ccccc2o1)NCCc1c[nH]c2ccccc12 [14a] |  | 6.28 ± 0.12 | 1.17 | < 40 | 0.496 ± 0.00707 |  |  |  | < 50 | IC50 (hMAOA): 2 µM; inhibition at 10 µM (EeAChE): < 50%
Nc1c2c(nc3ccccc13)CCCC2 [Tacrine, reference compound] |  | 0.2 ± 0.1 |  |  |  |  |  |  |  | 
COc1ccc2[nH]cc(CCNC(=O)CN(CCCC3CCN(Cc4ccccc4)CC3)C(=O)c3cc(=O)c4ccccc4o3)c2c1 [14j] | < 40 | 3.31 ± 0.10 |  | < 40 | 0.0371 ± 0.00046 |  | 270 | < 50 | < 50 | 
